Where “and” joins values, the source holds several entries; their conditions need not be identical. Identical values can stand only once. Like-named read-outs stand apart in the source and are kept apart here.
Legend:
PSV-1 3C protease = PSV-1 3C protease (Porcine sapelovirus 1, UniProt Q8JJT0); assay: In vitro proteolytic activity assay (HPLC, 3 h incubation); format: biochemical; settings: for reduction of protease activity: protein inhibitor stoichiometries of 1:1 and 1:3
Description: (§1) For 12 and 14, the inhibitory activity decreased for EV-B93>PSV-1>ERBV-1>AiV-1>EV-D68>HRV-A49.
(§2) A volume of 100 μl of reaction mixture containing 1.9 μM 3C protease, 25 μM substrate peptide, 5% DMSO, buffer (30 mM Tris pH 8.0, and 50 mM NaCl or 50 mM HEPES pH 7.4 and 50 mM NaCl) and (optionally) different concentrations of inhibitor was incubated in 37 °C during 3 h. The reaction was quenched by addition of 0.5% (final concentration) TFA. Samples were analysed by HPLC on SOURCE 15RPC ST 4.6/100 column using: 2–90% linear gradient of ACN in 0.1% TFA. The 3C protease activity in the absence of inhibitor was defined as 100%. The following peptides (GL Biochem, Shanghai, China) were dissolved in DMSO at a concentration of 5 mM and used for testing 3C proteases activity (Table 3).

ERBV-1 3C protease = ERBV-1 3C protease (Equine rhinitis B virus 1, UniProt Q66776); assay: as above; format: biochemical; settings: for reduction of protease activity: protein inhibitor stoichiometries of 1:1 and 1:3
Description: as §1, §2

EV-D68 3C protease = biological target: T1, EV-D68 3C protease (Human enterovirus D68, UniProt Q68T42); assay: as above; format: biochemical; settings: for reduction of protease activity: protein inhibitor stoichiometries of 1:1 and 1:3
T1 construct: a panel of six additional rhinoviral and enteroviral 3C proteases; purchased European Virus Archive
Description: as §1, §2

EV-B93 3C protease = EV-B93 3C protease (Enterovirus B93 (species Enterovirus B), UniProt Q5DSM6); assay: as above; format: biochemical, human enterovirus B93; settings: for reduction of protease activity: protein inhibitor stoichiometries of 1:1 and 1:3
Description: as §1, §2

AiV-1 3C protease = biological target: T2, AiV-1 3C protease (Aichi virus, UniProt O91464); assay: as above; format: biochemical, Aichi virus 1; settings: for reduction of protease activity: protein inhibitor stoichiometries of 1:1 and 1:3
T2 construct: a panel of six additional rhinoviral and enteroviral 3C proteases; purchased European Virus Archive
Description: as §1, §2

CVB3 3C protease = biological target: T3, CVB3 3C protease (Coxsackievirus B3, UniProt P03313); assay: FRET-based enzyme activity assay (warhead activation / inhibitor kinetics); format: biochemical, Coxsackie virus B3; settings: for kinact/KI: relative inactivation rate, slope of kobs against inhibitor concentration; for IC50: read-out: IC50
T3 construct: 3C protease of Coxsackie virus B3 consisting of 183 amino-acid residues; made in house; host or cells: E. coli BL21(DE3), plasmid pET-23a(+)
Description: The activity of the protease was measured by hydrolysis of the FRET-substrate N-Dabcyl-KTLEALFQ↓GPPVYE(Edans)-NH2. The peptide was purchased from Biosyntan (Berlin, Germany). Samples were irradiated with light with a wavelength of 355 nm and the emitted light at 538 nm was measured in relative fluorescence units (RFUs). An amount of 100 pmol of cleaved substrate equals 5,000 RFU.
Assay samples contained 10 μl of a 100 mM HEPES-NaOH buffer solution pH 7.5/1 mM EDTA, 10 μl enzyme solution (2 μM CVB3 3C^Pro), 10 μl of 10 μM substrate solution (both dissolved in the above buffer) and 1 μl Inhibitor and/or fragment dissolved in DMSO. For assay results of a dilution series of a mixture of 1 and 2 and comparison of reaction products in dependence of the assay solvent, see Supplementary Figs 1 and 2.
The screening procedure consisted of the following steps: 10 μl 100 mM HEPES-NaOH buffer solution pH 7.5/1 mM EDTA was placed in a cavity of the 384-well plate (polystyrene, Corning 3544). Then 10 μl of enzyme solution (40 μM CVB3 3C protease in 100 mM HEPES-NaOH buffer solution, pH 7.5/1 mM EDTA) was added and the plate was shaken for 2 min at 1,400 r.p.m. Afterwards, 0.5 μl of a DMSO solution of the electrophilic probe and 0.5 μl of a DMSO solution of the nucleophile was added, followed by 10 μl of substrate solution (10 μM in 100 mM HEPES-NaOH buffer solution, pH 7.5/1 mM EDTA). The plate was shaken again for 2 min at 1,400 r.p.m. and the generated fluorescence signal was measured with a Safire II Fluorimeter from Tecan. The electrophilic probe 1 was used at a concentration of 400 μM for the screening, which lowered the protease activity by 10–20%. Eight-hundred fifty primary amines were tested at a concentration of 320 μM and fragment 2 amplified the inhibitory activity of 1 most potently. Positive control samples contained only DMSO instead of the probe or the nucleophile. Negative control samples contained no active enzyme. An interfering fluorescent effect has not been observed.
When determining the inhibitory parameters of an inhibitor, the assay set-up was as mentioned but 1 μl DMSO solution of inhibitor was used instead of probe or nucleophile. Different concentrations of inhibitor were tested at least as duplicates and the pseudo-first-order association kinetics (kobs) were determined using GraphPad Prism. The slope of a plot of the different kobs values against the inhibitor concentration yielded kinact/KI.

HRV-A49 3C protease = HRV-A49 3C protease (Rhinovirus A49, UniProt A5GZE5); assay: In vitro proteolytic activity assay (HPLC, 3 h incubation); format: biochemical, human rhinovirus A49; settings: for reduction of protease activity: protein inhibitor stoichiometries of 1:1 and 1:3
Description: as §1, §2

CBV 3C protease = biological target: T4, CBV 3C protease (Coxsackievirus B3, UniProt P03313); assay: In vitro proteolytic activity assay (3 h incubation); format: biochemical, Coxsackie virus B3; settings: fixed enzyme concentration
T4 construct: 3C protease of Coxsackie virus B3 consisting of 183 amino-acid residues; made in house; host or cells: E. coli BL21(DE3), plasmid pET-23a(+)
Description: as §2

Human Caspase-3 = biological target: T5, Human Caspase-3 (Homo sapiens, UniProt P42574); assay: Side reactivity testing against different proteases; format: biochemical
T5 sequence (P42574 29-175 limits assumed): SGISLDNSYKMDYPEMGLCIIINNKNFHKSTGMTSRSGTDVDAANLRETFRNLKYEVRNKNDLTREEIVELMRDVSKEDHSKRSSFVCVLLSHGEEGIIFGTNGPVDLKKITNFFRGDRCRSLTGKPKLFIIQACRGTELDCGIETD
T5 sequence (P42574 176-277 limits assumed): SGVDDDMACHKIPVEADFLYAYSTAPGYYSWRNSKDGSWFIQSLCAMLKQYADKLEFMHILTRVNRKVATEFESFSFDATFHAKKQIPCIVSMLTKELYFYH
Description: (§3) The four enzymes cover a broad range of S1-preferences, namely for arginine/lysine (trypsin, factor Xa), hydrophobic residues (chymotrypsin) and aspartate (caspase-3).
(§4) Supplementary Table 3. Side reactivity testing of selected compounds against different
(§5) Cpd# Structure Trypsin1) Chymotrypsin2) Human factor Xa3) Human Caspase-34) […]
4) in 50 mM HEPES-NaOH pH 7.5 / 100 mM NaCl / 1 mM EDTA / 0.1% (w/v) CHAPS / 10% (v/v) glycerol /2 mM DTT
with 10 µM acetyl-DEVD-AMC as substrate;

Human factor Xa = Human factor Xa (Homo sapiens, UniProt P00742); assay: as above; format: biochemical
Chain of Human factor Xa (P00742 235-488 limits assumed): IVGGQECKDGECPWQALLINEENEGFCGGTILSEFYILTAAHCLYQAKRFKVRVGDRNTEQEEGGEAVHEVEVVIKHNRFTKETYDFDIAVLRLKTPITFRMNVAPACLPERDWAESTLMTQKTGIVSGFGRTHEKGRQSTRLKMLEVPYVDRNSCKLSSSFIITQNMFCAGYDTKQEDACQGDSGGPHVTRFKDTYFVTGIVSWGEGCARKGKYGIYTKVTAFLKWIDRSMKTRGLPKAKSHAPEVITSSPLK
Chain of Human factor Xa (P00742 41-179 partner limits assumed): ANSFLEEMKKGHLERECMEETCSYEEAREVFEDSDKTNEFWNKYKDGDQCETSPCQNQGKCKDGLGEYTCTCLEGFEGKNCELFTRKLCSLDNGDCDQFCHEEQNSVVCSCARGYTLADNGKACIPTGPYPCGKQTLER
Description: as §3, §4, §5
3) in 50 mM MOPS-NaOH pH 8.0 / 154 mM NaCl with 114 µM Boc-LGR-AMC as substrate; […]

Chymotrypsin = assay: as above; format: biochemical
Description: as §3, §4, §5
2) in 50 mM MOPS-NaOH pH 8.0 / 154 mM NaCl with 1.6 mM AF-AMC as substrate. […]

Trypsin = assay: as above; format: biochemical; settings: 50 mM MOPS-NaOH pH 8.0 / 154 mM NaCl, 57 µM Boc-LGR-AMC as substrate
Description: as §3, §4
Cpd# Structure Trypsin1) Chymotrypsin2) Human factor Xa3) Human Caspase-34)
1) in 50 mM MOPS-NaOH pH 8.0 / 154 mM NaCl with 57 µM tert. butyloxycarbonyl (Boc)-LGR-7-amino-4-
methylcoumarin (AMC) as substrate; […]

[1] = fixed enzyme concentration, 3 h incubation

`CCOC(=O)/C=C\C(=O)Nc1cc(=O)[nH]n1C1CCCCCC1` [Compound 12] was tested, and the “reduction of protease activity” value (PSV-1 3C protease) was “strongly reduced the activity”, the “reduction of protease activity” value (ERBV-1 3C protease) was “strongly reduced the activity” and the “reduction of protease activity” value (EV-D68 3C protease) was “strongly reduced the activity”. The “reduction of protease activity” value (EV-B93 3C protease) was “strongly reduced the activity”, the “reduction of protease activity” value (AiV-1 3C protease) was “strongly reduced the activity” and the kinact/KI (CVB3 3C protease) was 606 M⁻¹ s⁻¹ and 606.4 ± 24.9 M⁻¹ s⁻¹. The “reduction of protease activity” value (HRV-A49 3C protease) was “strongly reduced the activity”.

`O=C(NCc1cccc2ccccc12)[C@H]1O[C@@H]1C(=O)Nc1cc(=O)[nH]n1C1CCCCCC1` [Compound 6] was tested, and the “inhibition of the protease, in words” value (CVB3 3C protease) was “inactive”.

With `CCOC(=O)[C@H]1O[C@@H]1C(=O)Nc1cc(=O)[nH]n1C1CCCCCC1` [Compound 4] the “inhibition of the protease, in words” value (CVB3 3C protease) was “reversible inhibitor” and the IC50 (CVB3 3C protease) was 142000 ± 5600 nM.

`CCOC(=O)/C=C/C(=O)Oc1cc(N)n(C2CCCCCC2)n1` [Compound 11] showed an IC50 (CVB3 3C protease) of 20200 ± 1600 nM.

`CCOC(=O)/C=C/C(=O)Nc1cc(=O)[nH]n1C1CCCCCC1` [Compound 9] was tested, and the “inhibition of the protease, in words” value (CVB3 3C protease) was “inactive”.

With `CCNC(=O)/C=C\C(=O)NCC` [Compound 15] the “inhibition of the protease, in words” value (CVB3 3C protease) was “fully inactive”.

In the case of `O=C(/C=C/S(=O)(=O)c1ccccc1)Nc1cc(=O)[nH]n1C1CCCCCC1` [Compound 20], the IC50 (PSV-1 3C protease; [1]) is reported as 300 nM, the “reduction of protease activity” value (PSV-1 3C protease) is reported as “strongly reduced the activity” and the IC50 (ERBV-1 3C protease; [1]) is reported as 500 nM. For the same compound, the “reduction of protease activity” value (ERBV-1 3C protease) was “strongly reduced the activity”, the IC50 (EV-D68 3C protease; fixed enzyme concentration, 3 h incubation, read-out: IC50 HEV-D68) was 1000 nM and the “reduction of protease activity” value (EV-D68 3C protease) was “strongly reduced the activity”. For the same compound, the IC50 (EV-B93 3C protease; [1]) was 200 nM, the “inhibition of the enzyme” value (EV-B93 3C protease; one inhibitor equivalent) was “fully inhibited” and the “reduction of protease activity” value (EV-B93 3C protease) was “strongly reduced the activity”. The IC50 (CBV 3C protease) was 400 nM, the IC50 (Human Caspase-3; 50 mM HEPES-NaOH pH 7.5, 10 µM acetyl-DEVD-AMC as substrate) was over 300000 nM and the “activity against caspase-3, in words” value (Human Caspase-3; at concentrations of 100 μM) was “inactive”. The IC50 (AiV-1 3C protease; [1]) was 500 nM, the “reduction of protease activity” value (AiV-1 3C protease) was “strongly reduced the activity” and the kinact/KI (CVB3 3C protease) was 1,007 M^−1 s^−1 and 1,007.7±102.2 M^−1 s^−1. The kinact/KI (CVB3 3C protease; read-out: kinact/KI) was 1010 M⁻¹ s⁻¹, the IC50 (Human factor Xa; 50 mM MOPS-NaOH pH 8.0 / 154 mM NaCl, 114 µM Boc-LGR-AMC as substrate) was over 500000 nM and the “activity against factor Xa, in words” value (Human factor Xa; at concentrations of 100 μM) was “inactive”. For the same compound, the IC50 (Chymotrypsin; 50 mM MOPS-NaOH pH 8.0 / 154 mM NaCl, 1.6 mM AF-AMC as substrate) was over 500000 nM, the “activity against chymotrypsin, in words” value (Chymotrypsin; at concentrations of 100 μM) was “inactive” and the IC50 (Trypsin) was over 500000 nM. For the same compound, the IC50 (HRV-A49 3C protease; [1]) was 300 nM and the “reduction of protease activity” value (HRV-A49 3C protease) was “strongly reduced the activity”.

`CCOC(=O)/C=C\C(N)=O` [Compound 13] was tested, and the kinact/KI (CVB3 3C protease) was 34 M⁻¹ s⁻¹ and 34.7 ± 1.5 M⁻¹ s⁻¹.

With `CCOC(=O)/C=C\C(=O)Nc1cc(=O)[nH][nH]1` [Compound 18] the kinact/KI (CVB3 3C protease; read-out: kinact/KI) was 11.7 ± 0.5 M⁻¹ s⁻¹.
